Where a SMILES comes first, the peptide text is derived from it.
Legend:
[1] = tested on: S. aureus; experiment: Antimicrobial activity by flow cytometry (SYBR Green / propidium iodide); format: cell-based, Staphylococcus aureus subsp. aureus CECT 4013
Method: The strain used was CECT 4013 of S. aureus subsp. aureus, publicly accessible deposited in the Spanish Type Culture Collection (CECT).
Starting from cells of S. aureus cultured overnight in a liquid medium LB (peptone 1%, yeast extract 0.5% and NaCl 1%) at 37° C. with stirring, aliquots were obtained in a new liquid medium and allowed to grow until reaching an optical density at 600 nm (OD600) of 0.5, optimum for detection in the flow cytometer. Aliquots were prepared with a concentration of 5×10^6 cfu/100 μL of S. aureus to which were added 10, 15, 20 and 25 μg/mL of PaSK, 25 μg/mL of TcDef3-pep and H2O (negative control), solvent used to dilute the peptides. The mixtures were incubated at 37° C. for 8 h and marked with the fluorochromes SYBR Green (Invitrogen) (25 μL of a SYBR Green 25× solution in H2O) that stains all the cells and propidium iodide (Sigma) (10 μL of propidium iodide 1 mg/mL) that stains dead cells. Finally, the cell death caused by the peptides was analysed by flow cytometry with the equipment BD Facs Verse (Becton Dickinson), from the cell culture and flow cytometry section of the Central Services for Research Support of the University of Valencia. The experiments were performed in duplicate.
The flow cytometer forces cells to pass one by one through a needle, creating a thin line of liquid and detecting how the laser beam (argon emission laser at 488 nm, in the equipment used) interacts with the cells, depending on how the incident light is deviated and the fluorescence emitted by the excited fluorochromes. The results are presented as graphs obtained with the analysis program BD Facs suite v1.0.5.3841 (Becton Dickinson). […] Then, a second graph is obtained with the parameters SSC and FITC (fluorescence parameter indicating the cells containing SYBR Green), to differentiate the cells from the other particles that may be present in the sample. Lastly, a third graph is obtained with the fluorescence parameters FITC and PerCPCy5.5 (indicating the cells stained with propidium iodide) to differentiate the cells that have been stained only by SYBR Green from those stained with propidium iodide, which will be those that have died.
The antimicrobial activity of the peptide PaSK was determined by flow cytometry. […] Therefore, the use of these two fluorochromes provides a method for determining viable cells, quantifying the loss of cell viability from the increase in propidium iodide inside the dead cells.
After incubating the cells of strain CECT 4013 of S. aureus with 25 μg/mL of the peptides TcDef3-pep and PaSK, the percentage of dead cells was determined. […] FIGS. 1A-1D show the graphs corresponding to the fluorescence obtained in the windows of the flow cytometer.

[2] = tested on: MDA-MB-231 cells; experiment: Cell proliferation analysis by flow cytometry with Oregon Green; format: cell-based, human; settings: 50 μM (200 μg/mL)
Method: A cell proliferation analysis was performed by flow cytometry for tumour cells marked with the fluorophore Oregon Green subsequently treated with a concentration of 50 μM (200 μg/mL) of the peptide PaSK or with H2O as control. This analysis allowed exploring the use of PaSK in a combined therapeutic approach. The combined use of therapeutic agents meant to inhibit tumour growth and maintenance and agents capable of stimulating the patient's immune response in the treatment of cancer is an alternative therapeutic approach to conventional approaches based only on cytotoxic agents for reducing the impact of the two main problems associated with the exclusive use of cytotoxic agents in cancer therapy: non-specific toxicity and the appearance of resistance.
The reagent Oregon Green is covalently bonded to free amine groups of cells, conferring on same a homogeneous fluorescence that is distributed among the daughter cells in each cell division. As the fluorescence intensity of the cells is approximately halved with each cell division, the final fluorescence intensity after treatment with the peptide and in non-treated control cells compared to the initial fluorescence intensity of the cells provides information on how many cell division cycles have occurred in each case.

[3] = tested on: MDA-MB-231 tumour cells; experiment: Cell cycle analysis by flow cytometry (CycleTEST PLUS, ModFit LT); format: cell-based, human; settings: 100 μg/mL, 72 h
Method: The MDA-MB-231 cells were cultured in dishes with 6 wells with a density of 5×10^4 cells per well, in which 200 μL or 400 μL of PaSK were added (final concentrations 100 μg/mL and 200 μg/mL) or the same volume of the medium (solvent used to dilute the peptide) in the corresponding controls. The cells were incubated at 37° C. for 72 h.
For the cell line analysis, the CycleTEST™ PLUS DNA Reagent Kit (Sigma-Aldrich) was used. Two washes were carried out using citrate buffer (containing sodium citrate, saccharose and dimethyl sulphoxide (DMSO)), centrifuging the samples in each one at 300×g for 5 min, and one final wash was performed in which the number of cells was adjusted to 5×10^5 and centrifuged at 400×g for 5 min, and then adding 250 μL of solution A (containing trypsin in a detergent buffer with spermine tetrahydrochloride), 200 μL of solution B (containing an inhibitor of trypsin and ribonuclease A, in a stabilising buffer of citrate with spermine tetrahydrochloride) and 200 μL of solution C (includes PI and the stabilising buffer with spermine tetrahydrochloride), leaving between the addition of each solution an interval of 10 min at room temperature and performing the last one, before filtering, in a cold chamber and in the dark. The analyses of cell death produced by the peptide and of the stage of cell cycle of the cells were performed with the equipment BD Facs Verse (Becton Dickinson). The cell cycle modelling was performed with the software Modfit LT, version 3.3.11. The experiments were performed in duplicate.
In this example, the cytotoxic and antiproliferative activity of the peptide PaSK is assessed by flow cytometry, performing an analysis of cell viability and an analysis of the cell cycle. After treatment of the tumour cells MDA-MB-231 with 200 μg/mL (cell viability experiments) and 100 μg/mL (analysis of cell cycle) of PaSK the percentage of viable cells was determined, as well as the stage of the cell cycle in which proliferation was stopped.

CC[C@H](C)[C@H](NC(=O)[C@H](CCCNC(=N)N)NC(=O)[C@H](CCCNC(=N)N)NC(=O)[C@H](CCCCN)NC(=O)[C@H](CC(N)=O)NC(=O)[C@H](CS)NC(=O)[C@H](Cc1ccc(O)cc1)NC(=O)CNC(=O)CNC(=O)[C@H](CCCNC(=N)N)NC(=O)[C@H](CCCCN)NC(=O)[C@H](CCCNC(=N)N)NC(=O)[C@H](CCCCN)NC(=O)[C@H](CC(C)C)NC(=O)[C@H](CC(C)C)NC(=O)[C@H](CS)NC(=O)[C@H](Cc1c[nH]cn1)NC(=O)[C@H](C)NC(=O)[C@H](C)NC(=O)[C@H](CS)NC(=O)[C@H](C)NC(=O)[C@H](C)NC(=O)[C@H](Cc1c[nH]cn1)NC(=O)[C@H](CC(N)=O)NC(=O)[C@@H](NC(=O)[C@@H](N)CCCCN)C(C)C)C(=O)N[C@@H](CS)C(=O)N[C@H](C(=O)N[C@@H](CS)C(=O)N[C@@H](CCCNC(=N)N)C(=O)N[C@@H](CC(N)=O)C(=O)O)C(C)C [PaSK] (H-KVNHAACAAHCLLKRKRGGYCNKRRICVCRN-OH; N-terminus and C-terminus assumed)
percentage of cell death (cytotoxicity) ([1]; 10 μg/mL, same conditions): ~100%
percentage of dead cells (cytotoxicity) ([1]; 25 μg/mL, 8 h at 37° C., 2 replicates): ~100%
cell proliferation (Oregon Green fluorescence intensity) [2]: inhibits proliferation
percentage of cells in stage G1 [3]: 57.9%
percentage of cells in stage G2 [3]: 9.0%
percentage of cells in stage S [3]: 33.2%
